pIC50: −log10 of the molar value. In brackets after ≈: the same amount, converted by molar mass.
Assays:
[1] = target: T1, cAMP and cAMP-inhibited cGMP 3',5'-cyclic phosphodiesterase 10A (Homo sapiens, UniProt Q9Y233); assay: Inhibition of human recombinant PDE10A using cAMP as substrate preincubated for 20 mins followed by substrate addition measured after 2 hrs by FRET assay
[2] = Equilibrium solubility of the compound in phosphate buffer at pH 7.4; format: physicochemical
[3] = target: cGMP-dependent 3',5'-cyclic phosphodiesterase (Homo sapiens, UniProt O00408); assay: Inhibition of human recombinant PDE2A using cAMP as substrate preincubated for 20 mins followed by substrate addition measured after 2 hrs by FRET assay
[4] = target: T1, cAMP and cAMP-inhibited cGMP 3',5'-cyclic phosphodiesterase 10A; assay: Inhibition of human recombinant PDE10A using cAMP as substrate at 30 uM preincubated for 20 mins followed by substrate addition measured after 2 hrs by FRET assay
[5] = target: T1, cAMP and cAMP-inhibited cGMP 3',5'-cyclic phosphodiesterase 10A; assay: Binding affinity to human recombinant PDE10A after 15 mins by surface plasmon resonance assay

T1 sequence (Q9Y233 whole entry): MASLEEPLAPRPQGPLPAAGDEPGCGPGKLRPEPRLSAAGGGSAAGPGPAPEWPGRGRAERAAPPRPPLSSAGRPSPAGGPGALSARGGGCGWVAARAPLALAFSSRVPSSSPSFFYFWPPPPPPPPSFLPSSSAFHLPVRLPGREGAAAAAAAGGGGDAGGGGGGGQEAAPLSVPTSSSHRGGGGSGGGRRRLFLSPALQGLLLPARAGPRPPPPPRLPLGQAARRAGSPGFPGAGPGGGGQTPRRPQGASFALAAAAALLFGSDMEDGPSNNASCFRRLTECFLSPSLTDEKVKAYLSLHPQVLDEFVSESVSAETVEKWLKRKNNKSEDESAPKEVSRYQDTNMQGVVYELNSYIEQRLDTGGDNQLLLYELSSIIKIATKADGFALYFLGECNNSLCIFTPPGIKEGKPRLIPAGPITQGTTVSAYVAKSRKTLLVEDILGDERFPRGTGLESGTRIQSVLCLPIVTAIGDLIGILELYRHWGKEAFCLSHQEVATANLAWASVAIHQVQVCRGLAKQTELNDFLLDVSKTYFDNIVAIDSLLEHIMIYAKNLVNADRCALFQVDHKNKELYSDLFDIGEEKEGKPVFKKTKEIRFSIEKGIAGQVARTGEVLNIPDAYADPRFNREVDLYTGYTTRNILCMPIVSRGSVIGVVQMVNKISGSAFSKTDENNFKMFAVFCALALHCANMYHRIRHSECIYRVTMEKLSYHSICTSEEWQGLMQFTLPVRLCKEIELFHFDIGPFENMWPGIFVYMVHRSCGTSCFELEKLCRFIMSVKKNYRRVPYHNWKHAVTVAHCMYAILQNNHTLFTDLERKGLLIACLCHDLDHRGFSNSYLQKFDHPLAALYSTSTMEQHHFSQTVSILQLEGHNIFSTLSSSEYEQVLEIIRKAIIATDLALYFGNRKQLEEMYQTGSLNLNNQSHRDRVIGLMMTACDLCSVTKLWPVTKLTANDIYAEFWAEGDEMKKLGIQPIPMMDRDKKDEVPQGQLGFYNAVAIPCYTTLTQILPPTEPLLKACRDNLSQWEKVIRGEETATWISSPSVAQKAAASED
Sequence of cGMP-dependent 3',5'-cyclic phosphodiesterase (O00408 whole entry): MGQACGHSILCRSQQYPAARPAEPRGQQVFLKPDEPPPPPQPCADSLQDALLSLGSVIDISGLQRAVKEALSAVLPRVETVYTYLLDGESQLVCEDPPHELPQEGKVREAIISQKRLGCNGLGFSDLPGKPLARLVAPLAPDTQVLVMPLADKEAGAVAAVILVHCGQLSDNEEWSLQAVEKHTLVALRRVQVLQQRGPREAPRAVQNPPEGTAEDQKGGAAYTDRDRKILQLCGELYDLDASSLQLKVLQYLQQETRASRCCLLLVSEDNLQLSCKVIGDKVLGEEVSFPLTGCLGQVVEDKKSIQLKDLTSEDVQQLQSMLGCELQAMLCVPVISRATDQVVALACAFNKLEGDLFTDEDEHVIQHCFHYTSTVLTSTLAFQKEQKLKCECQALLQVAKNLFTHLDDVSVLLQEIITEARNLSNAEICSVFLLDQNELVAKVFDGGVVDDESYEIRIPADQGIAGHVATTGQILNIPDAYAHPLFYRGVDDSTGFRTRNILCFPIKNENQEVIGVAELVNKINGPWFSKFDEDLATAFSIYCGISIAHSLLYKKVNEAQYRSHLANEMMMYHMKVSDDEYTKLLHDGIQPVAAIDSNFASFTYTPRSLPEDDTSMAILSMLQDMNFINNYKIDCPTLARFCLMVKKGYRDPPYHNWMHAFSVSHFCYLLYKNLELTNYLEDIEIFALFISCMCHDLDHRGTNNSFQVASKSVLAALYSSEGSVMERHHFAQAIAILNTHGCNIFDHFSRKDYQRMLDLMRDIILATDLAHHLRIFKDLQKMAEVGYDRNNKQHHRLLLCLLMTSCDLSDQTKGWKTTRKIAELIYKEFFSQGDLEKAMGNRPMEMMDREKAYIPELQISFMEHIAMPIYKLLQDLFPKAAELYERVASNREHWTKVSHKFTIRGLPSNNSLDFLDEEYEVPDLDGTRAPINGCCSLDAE

| pIC50 [1] | solubility thermodynamic [2] [µM] | pIC50 [3] | inhibition [4] [%] | pIC50 [5] | SMILES |
| --- | --- | --- | --- | --- | --- |
| 7.00 | < 1 | < 4.00 | – | – | Cc1c(Cl)cccc1C(=O)Nc1cc(-c2nc3ccccc3[nH]2)[nH]n1 |
| < 4.52 | – | – | 23 | – | CS(=O)(=O)c1cccc(C(=O)Nc2cc(-c3nc4ccccc4[nH]3)[nH]n2)c1 |
| 5.42 | 2 (≈ 0.617 µg/mL) | – | – | – | Cc1nocc1C(=O)Nc1cc(-c2nc3ccccc3[nH]2)[nH]n1 |
| 7.80 | < 1 | < 4.00 | – | – | Cc1c(Cl)cccc1C(=O)Nc1ncc(-c2nc3ccccc3n2C)s1 |
| 6.96 | 1 (≈ 0.345 µg/mL) | < 4.00 | – | – | N#Cc1cccc(C(=O)Nc2ncc(-c3nc4ccccc4[nH]3)s2)c1 |
| – | – | – | – | 3.49 | Cc1csc(-c2ccccn2)n1 |
| 6.31 | 13 (≈ 5.05 µg/mL) | – | – | – | N#Cc1cccc(C(=O)Nc2ncc(-c3nc4ccccc4n3CCN)s2)c1 |
| 6.55 | < 1 | – | – | – | Cc1cccc(C(=O)Nc2cc(-c3nc4ccccc4[nH]3)[nH]n2)c1Cl |
| 6.92 | < 1 | – | – | – | Cn1c(-c2cnc(NC(=O)c3cccc(C#N)c3)s2)nc2ccccc21 |
| – | – | – | – | 3.07 | Cc1cc(-c2ccco2)[nH]n1 |

— ChEMBL document CHEMBL3745613, “Fragment-assisted hit investigation involving integrated HTS and fragment screening: Application to the identification of phosphodiesterase 10A (PDE10A) inhibitors” (Bioorg Med Chem Lett, 2016)
